Results as given in US20240216369A1, “THE USE OF A SPLICING MODULATOR FOR A TREATMENT SLOWING PROGRESSION OF HUNTINGTON'S DISEASE” (Novartis AG, priority 2019, published 2024).

Experiments:
tHTT = assay: Mutant and total HTT multiplex HTRF assay in Q48 HTT human embryonic stem cell line: tHTT; assay type: cell-based; details: Q48 HTT hESC, 48 hours
How it was run: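 Q48 HTT hESCs from HD donors were treated with compound for 48 h at 37 °C after 24 h adherence, then lysed. Lysates were read by multiplex HTRF with N-terminal donor, polyQ (MW1) and post-polyQ (MAB2166) antibodies for 4-6 h at RT. Donor/acceptor ratios give relative mHTT and tHTT; pIC50 reported.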

HTT mRNA = assay: Blood HTT mRNA in infants with Type 1 SMA (droplet digital PCR); assay type: in vivo, human
Protocol: The effect of branaplam on the expression levels of Huntingtin (HTT) mRNA was assessed in infants with Type I spinal muscular atrophy who were enrolled in an open-label multi-part first-in-human proof of concept study of oral branaplam.
Patients were dosed once weekly with branaplam. The branaplam doses were escalated in subsequent cohorts until MTD was determined or when PK results confirmed that the MTD could not be reached due to a potential pharmacokinetic exposure plateau at higher doses. […]
Levels of HTT mRNA and novel-exon-included HTT mRNA were then quantified by polymerase chain reaction (PCR) using the Bio-Rad QX200 droplet digital PCR system. […]
For HTT mRNA levels, two independent predesigned quantitative PCR assays (Assay Hs.PT.58.14833829 with forward primer 5′-[…]-3′ (SEQ ID NO: 10), reverse primer 5′-[…]-3′ (SEQ ID NO: 11) and probe 5′-56-FAM/CGCTTCCAC/ZEN/TTGTCTTCATTCTCCTTGT/3IABKFQ-3′ (SEQ ID NO: 12) and assay Hs.PT.58.25550542 with forward primer 5′-[…]-3′ (SEQ ID NO: 13), reverse primer 5′-CACCACTCTGGCTTCACAA-3′ (SEQ ID NO: 14) and probe 5′-56-FAM/CCCGACAGC/ZEN/GAGTCAGTGATTGTT/3IABKFQ-3′ (SEQ ID NO: 15), purchased from Integrated DNA Technologies, Inc.) were used. […]

CC1(C)CC(Oc2ccc(-c3ccc(-c4cn[nH]c4)cc3O)nn2)CC(C)(C)N1 [Compound 18, 5-(1H-pyrazol-4-yl)-2-(6-((2,2,6,6-tetramethylpiperidin-4-yl)oxy)pyridazin-3-yl)phenol]
tHTT pIC50 (tHTT): 7.371
inclusion of the novel exon into blood HTT mRNA (HTT mRNA; infants with Type 1 SMA, once weekly oral, up to 1450 study days, listed as branaplam): induced and elevated
blood HTT mRNA levels between study days 904 and 1450 (HTT mRNA; only 1-5 long-term treated subjects): returned to values around baseline levels
